Data as given in ChEMBL document CHEMBL1159165, “Novel, selective mechanism-based inhibitors of the herpes proteases” (Bioorg Med Chem Lett, 1996).
pIC50: −log10 of the molar value.

How the values were obtained:
Human betaherpesvirus 5 [1] = test: Compound was evaluated for inhibitory activity against human cytomegalovirus (HCMV) protease at dose of 10 uM; type: functional
[2] = Compound was evaluated for inhibitory activity against herpes simplex type 2 protease (HSV-2 pr) at dose of 10 uM; conditions: Human alphaherpesvirus 2
Human betaherpesvirus 5 [3] = test: Compound was evaluated for inhibitory activity against human cytomegalovirus (HCMV) protease.; type: functional
[4] = target: Serine protease 1 (Homo sapiens) (UniProt P07477); test: Compound was evaluated for inhibitory activity against trypsin at dose of 100 uM
Sequence of Serine protease 1 (Homo sapiens) (P07477 whole entry): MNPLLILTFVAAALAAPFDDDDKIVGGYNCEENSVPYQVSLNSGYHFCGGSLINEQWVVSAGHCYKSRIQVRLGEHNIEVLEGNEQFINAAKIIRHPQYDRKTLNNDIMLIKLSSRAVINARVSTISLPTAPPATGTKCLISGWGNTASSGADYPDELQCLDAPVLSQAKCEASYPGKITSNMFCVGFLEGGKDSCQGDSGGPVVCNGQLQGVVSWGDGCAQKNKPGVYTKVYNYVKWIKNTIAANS

[5] = Compound was evaluated for inhibitory activity against elastase at dose of 100 uM
[6] = Compound was evaluated for inhibitory activity against Chymotrypsinogen at dose of 100 uM
Human betaherpesvirus 5 [7] = test: Compound was evaluated for inhibitory activity against human cytomegalovirus (HCMV) protease 10 uM; type: functional
[8] = Compound was evaluated for inhibitory activity against Chymotrypsinogen at dose of 22 uM

Compound: CCOP(=O)(OCC)ON1C(=O)/C(=C/c2ccccc2)N=C1c1ccccc1
- inhibition at 10 µM (Human betaherpesvirus 5 [1]): 20%
- inhibition [2]: 5%

Compound: CC(=O)Oc1ccc([C@H]2C[C@@]23N=C(c2ccccc2)OC3=O)cc1
- pIC50 (Human betaherpesvirus 5 [3]): 5.96

Compound: COc1ccc([C@H]2C[C@@]23N=C(c2ccccc2)OC3=O)cc1
- inhibition [4]: 64%
- pIC50 (Human betaherpesvirus 5 [3]): 6.70
- inhibition [5]: 35%
- inhibition [6]: 92%

Compound: CC(=O)ON1C(=O)/C(=C/c2ccccc2)N=C1c1ccccc1
- inhibition at 10 µM (Human betaherpesvirus 5 [1]): 35%
- inhibition [2]: 14%

Compound: CC1=N[C@@]2(C[C@@H]2c2ccccc2)C(=O)O1
- inhibition [4]: 88%
- inhibition [5]: 82%

Compound: CS(=O)(=O)ON1C(=O)/C(=C/c2ccccc2)N=C1c1ccccc1
- pIC50 (Human betaherpesvirus 5 [3]): 6.40
- inhibition [5]: 33%

Compound: O=C1OC(c2ccccc2)=NC12CC2
- Inhibition (Human betaherpesvirus 5 [7]): 16%
- inhibition [2]: 71%

Compound: CC(=O)n1cc([C@H]2C[C@@]23N=C(c2ccccc2)OC3=O)c2ccccc21
- pIC50 (Human betaherpesvirus 5 [3]): 6.80

Compound: O=C1OC(c2ccccc2)=N[C@@]12C[C@H]2c1ccccc1
- inhibition at 10 µM (Human betaherpesvirus 5 [1]): 85%
- inhibition [2]: 24%

Compound: COc1ccc(S(=O)(=O)ON2C(=O)/C(=C/c3ccccc3)N=C2c2ccccc2)cc1
- pIC50 (Human betaherpesvirus 5 [3]): 5.64
- inhibition [2]: 20%

Compound: O=C1OC(c2ccccc2)=N[C@@]12C[C@@H]2c1ccccc1
- inhibition [4]: 63%
- pIC50 (Human betaherpesvirus 5 [3]): 5.74
- inhibition [5]: 42%
- inhibition [8]: 92%
